This note sets out measurements from PubChem BioAssay (NCI).

Holding throughout (assay): growth of human tumour cells (NCI), 48 h
In assay [1] the test system is COLO 205 colon.
Assay [2] has as its system SK-OV-3 ovarian.
The subject of assay [3] is SF-539 CNS.
The test system of assay [4] is K-562 leukemia.
For assay [5], the system named is OVCAR-4 ovarian.
The test system of assay [6] is SF-295 CNS.
The subject of assay [7] is KM12 colon.
Assay [8] relates to PC-3 prostate.
In assay [9] the test system is A549 NSCLC.
Assay [10] relates to NCI-H23 lung.

SMILES strings stand for the structures. Where “and” joins values, the source holds several entries; their conditions need not be identical. Equal entries are not always repeated.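 In this assay, cells in 96-well plates receive the compound at five concentrations for 48 hours. Endpoints are linearly interpolated between the surrounding concentrations. The concentration for 50% growth inhibition is given as GI50. TGI marks complete inhibition of growth.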 Bounds are passed on as bounds.

For `C=C(C=O)C1CCC2(C(=O)O)CCC3(C)C(CCC4C5(C)CCC(O)C(C)(C)C5CCC43C)C12` (stereo not drawn), the GI50 in assay [1] is 2.64 µM; in assay [2], 7.37 µM; in [3] it was 2.83 µM; in assay [4] it was 2.72 µM; in assay [5] it was 4.83 µM; in assay [6], 3.39 µM. Moreover, the GI50 in assay [7] was 1.61 µM; in assay [8], 2.76 µM; in assay [9], 4.58 µM; in assay [10] it was 1.63 µM. Besides, the TGI is 6.18 µM in assay [1]; 19.6 µM in assay [2]; 8.06 µM in [3]; greater than 100 µM in assay [4]; 22.2 µM in assay [5]; 15.1 µM in assay [6]. In addition, the TGI in assay [7] turned out to be 3.39 µM; in assay [8], 23.2 µM; in assay [9], 28.7 µM; in assay [10] it was 3.3 µM.
For `CC[C@]12C=CCN3CC[C@@]4(c5ccc(OC)cc5N(C)[C@H]4[C@@](O)(C(=O)OC)[C@@H]1OC(=O)CCC[P+](c1ccccc1)(c1ccccc1)c1ccccc1)[C@@H]32`, the GI50 in assay [1] is 0.161 µM and 0.208 µM; in assay [2], 0.894 µM and 0.439 µM; in assay [3], 0.648 µM and 0.769 µM; in assay [4], 0.561 µM and 0.421 µM; in assay [5], 0.317 µM and 0.322 µM; in assay [6] it was 1.49 µM and 2.22 µM. Further, the GI50 in [7] was 0.274 µM and 0.527 µM; in assay [8], 0.224 µM and 0.345 µM; in [9], 1.5 µM and 1.11 µM; in assay [10], 1.11 µM and 0.984 µM. Besides, the TGI is 0.611 µM and 0.454 µM in [1]; 3.8 µM and 2.46 µM in [2]; 5.78 µM and 4.78 µM in [3]; 8.23 µM and 5.98 µM in [4]; 6.1 µM and 2.32 µM in assay [5]; 4.66 µM and 5.65 µM in [6]. The TGI is 1.06 µM and 1.8 µM in assay [7]; 5.13 µM and 2.59 µM in [8]; 36.2 µM and 11.4 µM in assay [9]; 5.5 µM and 7.77 µM in assay [10].
In the case of `C=C(C)[C@@]12OC3(/C=C/C=C/CCCCC)O[C@@H]1[C@@H]1[C@@H]4O[C@]4(CO)[C@@H](O)[C@]4(O)C(=O)C(C)=C[C@H]4[C@@]1(O3)[C@H](C)[C@H]2OC(=O)c1ccccc1`, the GI50 was less than 0.01 µM in assay [1]; 2.44 µM in [2]; 1.41 µM in assay [3]; less than 0.01 µM in [4]; 1.91 µM in assay [5]; less than 0.01 µM in assay [6]. Besides, the GI50 is 1.61 µM in [7], 1.46 µM in assay [8], less than 0.01 µM in assay [9] and 2.84 µM in [10]. Further, the TGI in assay [1] came out at 1.6 µM; in [2], 4.9 µM; in [3] it was 2.8 µM; in [4], 1.87 µM; in assay [5], 3.82 µM; in assay [6], 4.9 µM. The TGI turned out to be 2.99 µM in [7], 3.3 µM in [8], 2.04 µM in assay [9] and 8.12 µM in assay [10].
In the case of `COc1cc(Nc2cn[nH]c2-c2ccc(Cl)cc2)cc(OC)c1OC`, the GI50 in assay [1] was 4.39 µM; in [2], 4.92 µM; in assay [3], 4.48 µM; in assay [4], 2.49 µM; in [5], 7.93 µM; in assay [6], 2.18 µM. Moreover, the GI50 in [7] is 2.83 µM; in [8] it was 8.18 µM; in assay [9], 5.96 µM; in assay [10], 8.33 µM. Also, the TGI was 21.9 µM in assay [1]; 36.6 µM in [2]; 24.7 µM in [3]; 97.2 µM in assay [4]; greater than 100 µM in assay [5]; 11.3 µM in assay [6]. For the same compound, the TGI is 16.4 µM in assay [7], greater than 64 µM in assay [8], greater than 100 µM in [9] and greater than 60.8 µM in assay [10].
In the case of `Cn1cc(C2=C(c3ccc4ccccc4c3)C(=O)NC2=O)c2ccccc21`, the GI50 was 20.8 µM in assay [1]; greater than 25 µM in assay [2]; greater than 25 µM in assay [3]; 2.09 µM in assay [4]; greater than 25 µM in assay [5]; greater than 23.5 µM in [6]. In addition, the GI50 is 12.5 µM in assay [7], greater than 25 µM in [8], greater than 21.8 µM in assay [9] and greater than 25 µM in assay [10]. Besides, the TGI in [1], in assay [2], in [3], in assay [4], in assay [5] and in assay [6] was greater than 25 µM throughout. The TGI in assay [7], in assay [8], in assay [9] and in [10] was greater than 25 µM in each case.
Regarding `C#Cc1cccc(Nc2ncnc3cc(OC)c(OCCCCCCC(=O)NO)cc23)c1`, the GI50 in assay [1] was 0.157 µM; in assay [2], 0.208 µM; in assay [3], 0.198 µM; in [4], 0.0817 µM; in [5] it was 0.374 µM; in assay [6] it was 0.311 µM. The GI50 in assay [7] was 0.197 µM; in assay [8] it was 0.273 µM; in assay [9], 0.404 µM; in [10], 0.383 µM. The TGI in [1] was found to be 0.538 µM; in assay [2], 1.03 µM; in [3], 1.34 µM; in [5], 5.34 µM; in [6], 2.18 µM; in assay [7], 3.46 µM. The TGI in assay [8] came to 5.38 µM; in assay [9], 4.45 µM; in [10], 2.57 µM.
Regarding `O=C1NC(=Nc2ccccc2)S/C1=C\c1ccc2ncccc2c1`, the GI50 was greater than 25 µM in assay [1]; greater than 25 µM in assay [2]; greater than 6.25 µM in assay [3]; 0.846 µM in [4]; greater than 25 µM in [5]; 1.62 µM in [7]. For the same compound, the GI50 in assay [8] is 1.67 µM; in assay [9], greater than 7.12 µM; in assay [10], 5.89 µM. Besides, the TGI in assay [1] is greater than 25 µM; in assay [2] it was greater than 25 µM; in assay [3], greater than 25 µM; in [4], greater than 25 µM; in assay [5] it was greater than 25 µM; in [6], greater than 7.02 µM. In addition, the TGI in [7], in assay [8], in assay [9] and in assay [10] was greater than 25 µM in each case.
